{"source": "patent EP0234931A1", "about": "“Azaanthracene compounds” (TAISHO PHARMACEUTICAL CO. LTD, priority 1986, dated 1987)", "system": "p388 lymphocytic leukemia", "assay": "P388 Lymphocytic Leukemia Test", "format": "in vivo, CDF₁ mice", "details": "median survival time treated/control", "description": "P388 Lymphocytic Leukemia Test\nFemale, CDF₁ mice (5-6 weeks old, weighing 17-20 g) were intraperitoneally transplanted with 1 × 10⁶ cells of p388 lymphocytic leukemia passaged on female, DBA/2 mice on day 0.\nA suspension of the compound of formula (I) in 0.5% of gum arabic saline solution was administered intraperitoneally once a day, 5 times in all, from day l to day 5, or 2 times in all, day l and day 5. A solution of 5-fluorouracil in saline served as a reference drug, and was administered similarly. Control group were similarly administered with only 0.5% gum arabic saline solution.\nEight animals were used for the treated group with the compound of formula (I) and the reference drug, respectively, and 16 animals for control group.\nThe antitumor effect was evaluated according to the criterion of the National Cancer Institute of the United States (NCI). The survivors of each group were recorded for 30 days, and the value of T/C × 100 (%) was calculated from the median survival times for the treated animals (T) and the control animals (C). When the value is 125 or more, the drug is judged to be effective.", "key": {"[1]": {"details": "Dose 25.0 mg/kg intraperitoneally, administration day 1 - 5"}, "[2]": {"details": "Dose 50.0 mg/kg intraperitoneally, administration day 1 - 5"}}, "data": [{"smiles": "O=c1[nH]cc(F)c(=O)[nH]1", "note": "[5-fluoro-uracil, 5-fluorouracil, reference compound]", "values": [{"measurement": "T/C x 100", "setting": "Dose 3.1 mg/kg intraperitoneally, administration day 1 - 5", "value": 136, "unit": "%"}, {"measurement": "T/C x 100", "setting": "Dose 6.3 mg/kg intraperitoneally, administration day 1 - 5", "value": 148, "unit": "%"}, {"measurement": "T/C x 100", "setting": "Dose 12.5 mg/kg intraperitoneally, administration day 1 - 5", "value": 166, "unit": "%"}, {"measurement": "T/C x 100", "setting": "[1]", "value": 176, "unit": "%"}]}, {"smiles": "CN(C)CCNC(=O)c1c(O)c2ccccc2c2nc3ccncc3nc12", "note": "[Compound 1, N-β-dimethylaminoethyl 5-hydroxybenzo[f]pyrido[3,4-b]quinoxaline-6-carboxamide]", "values": [{"measurement": "T/C x 100", "setting": "Dose 6.3 mg/kg intraperitoneally, administration day 1, 5, 30 days observation", "value": 133, "unit": "%"}, {"measurement": "T/C x 100", "setting": "Dose 12.5 mg/kg intraperitoneally, administration day 1, 5", "value": 137, "unit": "%"}, {"measurement": "T/C x 100", "setting": "Dose 25.0 mg/kg intraperitoneally, administration day 1, 5", "value": 275, "unit": "%"}]}, {"smiles": "CN(C)CCNC(=O)c1c(O)c2ccccc2c2nc3ncncc3nc12", "note": "[Compound 8, N-β-dimethylaminoethyl 5-hydroxynaphtho[2,1-g]pteridine-6-carboxamide]", "values": [{"measurement": "T/C x 100", "setting": "[1]", "value": 133, "unit": "%"}, {"measurement": "T/C x 100", "setting": "[2]", "value": 153, "unit": "%"}, {"measurement": "T/C x 100", "setting": "Dose 100 mg/kg intraperitoneally, administration day 1 - 5", "value": 148, "unit": "%"}]}, {"smiles": "CN(C)CCNC(=O)c1c(O)c2ccccc2c2nc3ncccc3nc12", "note": "[Compound 5, N-β-dimethylaminoethyl 5-hydroxybenzo[f]pyrido[3,2-b]quinoxaline-6-carboxamide]", "values": [{"measurement": "T/C x 100", "setting": "[1]", "value": 130, "unit": "%"}, {"measurement": "T/C x 100", "setting": "Dose 50.0 mg/kg intraperitoneally, administration day 1, 5", "value": 135, "unit": "%"}, {"measurement": "T/C x 100", "setting": "Dose 100 mg/kg intraperitoneally, administration day 1, 5", "value": 195, "unit": "%"}, {"measurement": "T/C x 100", "setting": "Dose 200 mg/kg intraperitoneally, administration day 1, 5", "value": 200, "unit": "%"}]}, {"smiles": "O=C(NCCNCCO)c1c(O)c2ccccc2c2nc3ncccc3nc12", "note": "[Compound 7, N-2-(2-hydroxyethylamino)ethyl 5-hydroxybenzo[f]pyrido[3,2-b]quinoxaline-6-carboxamide]", "values": [{"measurement": "T/C x 100", "setting": "[1]", "value": 174, "unit": "%"}, {"measurement": "T/C x 100", "setting": "[2]", "value": 227, "unit": "%"}]}]}
